{"source": "patent US20080081798A1", "about": "“Pharmaceutical combinations for the treatment of head-aches and migraine attacks as well as blisters and packs that contain them” (priority 2006, published 2008)", "tested_on": "patients suffering from migraine (moderate or severe migraine attacks)", "assay": "Double-blind, randomized, cross-over, placebo-controlled study of rizatriptan and trimebutine for treating migraine", "format": "in vivo, human", "method": "Thirty-two patients (24 women and 8 men, aged between 21 and 61, average=39.7) suffering from migraine according to the criteria of the International Headache Association were randomized to treat 2 consecutive moderate or severe attacks with a tablet of 10 mg of rizatriptan and a capsule of 200 mg of trimebutine and 2 attacks with the same amount of triptan and placebo, and vice-versa. The severity of the attacks, as well as the presence of nauseas and photophobia at the moment of ingesting the drug after 1, 2 and 4 hours were collected.", "data": [{"smiles": "CN(C)CCc1c[nH]c2ccc(Cn3cncn3)cc12", "note": "[rizatriptan]", "values": [{"measurement": "without pain after 1 hour (share of the 38 attacks without pain)", "setting": "10 mg rizatriptan tablet with 200 mg trimebutine capsule or placebo, 1 hour, of the 38 attacks, p<0.001", "value": 21.1, "unit": "%"}, {"measurement": "without pain after 2 hours (share of the 67 attacks)", "setting": "10 mg rizatriptan tablet with 200 mg trimebutine capsule or placebo, 2 hours, of the 67 attacks, p<0.0001", "value": 29.9, "unit": "%"}, {"measurement": "adverse events present (number of attacks treated)", "setting": "64 attacks treated with each drug regimen", "value": 18, "unit": "attacks"}, {"measurement": "free from nausea after 1 hour", "setting": "1 hour, p<0.001", "value": 23.7, "unit": "%"}, {"measurement": "free from photophobia after 1 hour", "setting": "1 hour, p<0.001", "value": 26.7, "unit": "%"}]}]}
